Reference: US20250051337A1 (priority 2021, published 2025)
Read-outs that look alike come from different tables or passages of the source.

What was measured:
STK4 = STK4 (Homo sapiens (Human), UniProt Q13043); test: ADP-Glo kinase assay, STK4; format: biochemical; conditions: ADP-Glo, 50 μM ATP; read-out: STK4 IC50
Procedure: (§1) The STK3 kinase assay was performed in 5 μL reaction buffer containing 50 ng recombinant human STK3 protein (full length, SignalChem #S24-10G; Richmond, Canada), 250 μg/mL myelin basic protein (Sigma-Aldrich #M1891; St. Louis, MO, USA), and 50 μM ATP (Sigma-Aldrich #A7699). The STK4 kinase assay was performed in 5 μL reaction buffer containing 50 ng recombinant human STK4 protein (full length, SignalChem #S25-10G), 300 μg/mL Axltide (SignalChem #A16-58), and 50 μM ATP. […] Three experiments were performed, each in triplicate.

STK3 = STK3 (Homo sapiens (Human), UniProt Q13188); test: ADP-Glo kinase assay, STK3; format: biochemical
STK3, sequence (Q13188 whole entry): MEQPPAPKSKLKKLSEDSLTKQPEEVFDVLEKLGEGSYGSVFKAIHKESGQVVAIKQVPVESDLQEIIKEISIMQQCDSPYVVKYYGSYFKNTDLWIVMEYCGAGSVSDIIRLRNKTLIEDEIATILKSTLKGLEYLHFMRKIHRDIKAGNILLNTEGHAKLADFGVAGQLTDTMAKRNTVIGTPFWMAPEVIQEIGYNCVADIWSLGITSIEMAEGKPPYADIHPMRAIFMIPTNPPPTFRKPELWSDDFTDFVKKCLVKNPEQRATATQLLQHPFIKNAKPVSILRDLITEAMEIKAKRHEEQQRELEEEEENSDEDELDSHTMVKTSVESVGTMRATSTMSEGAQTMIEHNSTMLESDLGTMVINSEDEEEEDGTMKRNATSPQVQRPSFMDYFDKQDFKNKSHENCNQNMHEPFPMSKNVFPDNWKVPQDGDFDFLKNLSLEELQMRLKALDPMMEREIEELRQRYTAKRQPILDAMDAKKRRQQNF
Procedure: as §1

[1] = ADP-Glo, 50 μM ATP, read-out: STK3 IC50

STK4, sequence (Q13043 whole entry): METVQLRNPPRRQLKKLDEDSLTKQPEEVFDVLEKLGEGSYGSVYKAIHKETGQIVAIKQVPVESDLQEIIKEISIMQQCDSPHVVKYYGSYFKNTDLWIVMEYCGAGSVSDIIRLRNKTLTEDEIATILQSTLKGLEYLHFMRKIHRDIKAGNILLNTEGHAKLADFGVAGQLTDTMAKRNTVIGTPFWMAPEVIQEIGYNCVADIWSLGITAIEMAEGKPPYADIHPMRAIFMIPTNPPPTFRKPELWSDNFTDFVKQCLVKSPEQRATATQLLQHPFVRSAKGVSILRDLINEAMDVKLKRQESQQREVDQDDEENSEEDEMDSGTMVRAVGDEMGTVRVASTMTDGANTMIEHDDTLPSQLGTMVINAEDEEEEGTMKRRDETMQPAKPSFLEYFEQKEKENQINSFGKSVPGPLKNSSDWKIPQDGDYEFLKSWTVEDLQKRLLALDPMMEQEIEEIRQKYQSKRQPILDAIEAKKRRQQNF

IC50 (STK4)	IC50 (STK3; [1])	Structure (SMILES)	IC50 (STK3)
1 to 5 µM	> 5 µM	Clc1cccc(-c2c[nH]c3ncnc(NCc4ccncc4)c23)c1 [Compound 71, 5-(3-chlorophenyl)-N-(pyridin-4-ylmethyl)-7H-pyrrolo[2,3-d]pyrimidin-4-amine]	
1 to 5 µM	> 5 µM	COc1ccc(CCNc2ncnc3[nH]cc(-c4cccc(Cl)c4)c23)cc1OC [Compound 72, 5-(3-chlorophenyl)-N-(3,4-dimethoxyphenethyl)-7H-pyrrolo[2,3-d]pyrimidin-4-amine]	
1 to 5 µM	> 5 µM	COc1ccc(CNc2ncnc3[nH]cc(-c4cccc(Cl)c4)c23)c(OC)c1 [Compound 73, 5-(3-chlorophenyl)-N-(2,4-dimethoxybenzyl)-7H-pyrrolo[2,3-d]pyrimidin-4-amine]	
> 5 µM	> 5 µM	COc1cccc(CNc2ncnc3[nH]cc(-c4cccc(Cl)c4)c23)c1 [Compound 74, 5-(3-chlorophenyl)-N-(3-methoxybenzyl)-7H-pyrrolo[2,3-d]pyrimidin-4-amine]	
> 5 µM	> 5 µM	Clc1cccc(-c2c[nH]c3ncnc(NCc4cnco4)c23)c1 [Compound 75, 5-(3-chlorophenyl)-N-(oxazol-5-ylmethyl)-7H-pyrrolo[2,3-d]pyrimidin-4-amine]	
> 5 µM	> 5 µM	Clc1cccc(-c2c[nH]c3ncnc(NCc4cnc[nH]4)c23)c1 [Compound 76, N-((1H-imidazol-5-yl)methyl)-5-(3-chlorophenyl)-7H-pyrrolo[2,3-d]pyrimidin-4-amine]	
> 5 µM	> 5 µM	Clc1cccc(-c2c[nH]c3ncnc(NCc4nccs4)c23)c1 [Compound 79, 5-(3-chlorophenyl)-N-(thiazol-2-ylmethyl)-7H-pyrrolo[2,3-d]pyrimidin-4-amine]	
> 5 µM	> 5 µM	CCN1CCCC1CNc1ncnc2[nH]cc(-c3cccc(Cl)c3)c12 (centres unmarked) [Compound 80, 5-(3-chlorophenyl)-N-((1-ethylpyrrolidin-2-yl)methyl)-7H-pyrrolo[2,3-d]pyrimidin-4-amine]	
1 to 5 µM	> 5 µM	Clc1cccc(-c2c[nH]c3ncnc(N4CCC(N5CCCCC5)CC4)c23)c1 [Compound 81, 4-([1,4′-bipiperidin]-1′-yl)-5-(3-chlorophenyl)-7H-pyrrolo[2,3-d]pyrimidine]	
> 5 µM	> 5 µM	CCN(CC)CCNc1ncnc2[nH]cc(-c3cccc(Cl)c3)c12 [Compound 82, N1-(5-(3-chlorophenyl)-7H-pyrrolo[2,3-d]pyrimidin-4-yl)-N2,N2-diethylethane-1,2-diamine]	
> 5 µM	> 5 µM	Clc1cccc(-c2c[nH]c3ncnc(NCCN4CCCC4)c23)c1 [Compound 83, 5-(3-chlorophenyl)-N-(2-(pyrrolidin-1-yl)ethyl)-7H-pyrrolo[2,3-d]pyrimidin-4-amine]	
> 5 µM	> 5 µM	Clc1cccc(-c2c[nH]c3ncnc(NCC4CCCCCC4)c23)c1 [Compound 84, 5-(3-chlorophenyl)-N-(cycloheptylmethyl)-7H-pyrrolo[2,3-d]pyrimidin-4-amine]	
> 5 µM	> 5 µM	Cc1ccc(CNc2ncnc3[nH]cc(-c4cccc(Cl)c4)c23)cc1C [Compound 85, 5-(3-chlorophenyl)-N-(3,4-dimethylbenzyl)-7H-pyrrolo[2,3-d]pyrimidin-4-amine]	
> 5 µM	> 5 µM	Clc1cccc(-c2c[nH]c3ncnc(N4CCC(c5ccccc5)CC4)c23)c1 [Compound 87, 5-(3-chlorophenyl)-4-(4-phenylpiperidin-1-yl)-7H-pyrrolo[2,3-d]pyrimidine]	
> 5 µM	> 5 µM	Clc1cccc(-c2c[nH]c3ncnc(NCCC(c4ccccc4)c4ccccc4)c23)c1 [Compound 88, 5-(3-chlorophenyl)-N-(3,3-diphenylpropyl)-7H-pyrrolo[2,3-d]pyrimidin-4-amine]	
> 5 µM	> 5 µM	Clc1cccc(-c2c[nH]c3ncnc(N4CCN(c5ccccc5)CC4)c23)c1 [Compound 89, 5-(3-chlorophenyl)-4-(4-phenylpiperazin-1-yl)-7H-pyrrolo[2,3-d]pyrimidine]	
> 5 µM	> 5 µM	Clc1cccc(-c2c[nH]c3ncnc(N4CCC(Cc5ccccc5)CC4)c23)c1 [Compound 90, 4-(4-benzylpiperidin-1-yl)-5-(3-chlorophenyl)-7H-pyrrolo[2,3-d]pyrimidine]	
> 5 µM	> 5 µM	Cc1cccc(CNc2ncnc3[nH]cc(-c4cccc(Cl)c4)c23)c1 [Compound 91, 5-(3-chlorophenyl)-N-(3-methylbenzyl)-7H-pyrrolo[2,3-d]pyrimidin-4-amine]	

IC50 (STK4)	IC50 (STK3; [1])	Structure (SMILES)	IC50 (STK3)
> 5 µM	> 5 µM	Clc1cccc(-c2coc3nccc(N4CCOCC4)c23)c1 [Compound 94, 3-(3-chlorophenyl)-4-morpholinofuro[2,3-b]pyridine]	
> 5 µM	> 5 µM	Cn1cc(-c2cccc(Cl)c2)c2c(N3CCOCC3)ncnc21 [Compound 95, 4-(5-(3-chlorophenyl)-7-methyl-7H-pyrrolo[2,3-d]pyrimidin-4-yl)morpholine]	
< 1 µM	1 to 5 µM	NS(=O)(=O)c1ccc(Nc2nc(N3CCOCC3)c3c(-c4cccc(Cl)c4)c[nH]c3n2)cc1 [Compound 96, 4-((5-(3-chlorophenyl)-4-morpholino-7H-pyrrolo[2,3-d]pyrimidin-2-yl)amino)benzenesulfonamide]	
> 5 µM	> 5 µM	C=CC(=O)Cc1nc(N2CCOCC2)c2c(-c3cccc(Cl)c3)c[nH]c2n1 [Compound 97, 1-(5-(3-chlorophenyl)-4-morpholino-7H-pyrrolo[2,3-d]pyrimidin-2-yl)but-3-en-2-one]	
< 1 µM	< 1 µM	CNS(=O)(=O)c1ccc(Nc2nc(N3CCOCC3)c3c(-c4cccc(Cl)c4)c[nH]c3n2)cc1 [Compound 98, 4-((5-(3-chlorophenyl)-4-morpholino-7H-pyrrolo[2,3-d]pyrimidin-2-yl)amino)-N-methylbenzenesulfonamide]	
> 5 µM	> 5 µM	COC(=O)c1ccc(Nc2nc(N3CCOCC3)c3c(-c4cccc(Cl)c4)c[nH]c3n2)cc1 [Compound 99, methyl 4-((5-(3-chlorophenyl)-4-morpholino-7H-pyrrolo[2,3-d]pyrimidin-2-yl)amino)benzoate]	
< 1 µM	1 to 5 µM	O=C(O)c1ccc(Nc2nc(N3CCOCC3)c3c(-c4cccc(Cl)c4)c[nH]c3n2)cc1 [Compound 100, 4-((5-(3-chlorophenyl)-4-morpholino-7H-pyrrolo[2,3-d]pyrimidin-2-yl)amino)benzoic acid]	
> 5 µM	> 5 µM	O=[N+]([O-])c1ccc(Nc2nc(N3CCOCC3)c3c(-c4cccc(Cl)c4)c[nH]c3n2)cc1 [Compound 101, 5-(3-chlorophenyl)-4-morpholino-N-(4-nitrophenyl)-7H-pyrrolo[2,3-d]pyrimidin-2-amine]	
< 1 µM	< 1 µM	CC(O)CNc1ncnc2[nH]cc(-c3cccc(Cl)c3)c12 (centres unmarked) [Compound 104, 1-((5-(3-chlorophenyl)-7H-pyrrolo[2,3-d]pyrimidin-4-yl)amino)propan-2-ol]	
< 1 µM	< 1 µM	CN(C)C1CCN(c2ncnc3[nH]cc(-c4cccc(Cl)c4)c23)CC1 [Compound 107, 1-(5-(3-chlorophenyl)-7H-pyrrolo[2,3-d]pyrimidin-4-yl)-N,N-dimethylpiperidin-4-amine]	
< 1 µM	< 1 µM	CC1CCN(c2ncnc3[nH]cc(-c4cccc(Cl)c4)c23)CC1 [Compound 109, 5-(3-chlorophenyl)-4-(4-methylpiperidin-1-yl)-7H-pyrrolo[2,3-d]pyrimidine]	
< 1 µM	< 1 µM	COC1CCN(c2ncnc3[nH]cc(-c4cccc(Cl)c4)c23)CC1 [Compound 110, 5-(3-chlorophenyl)-4-(4-methoxypiperidin-1-yl)-7H-pyrrolo[2,3-d]pyrimidine]	
< 1 µM	< 1 µM	CCCCNc1ncnc2[nH]cc(-c3cccc(Cl)c3)c12 [Compound 116, N-butyl-5-(3-chlorophenyl)-7H-pyrrolo[2,3-d]pyrimidin-4-amine]	
< 1 µM	< 1 µM	CC(CO)CNc1ncnc2[nH]cc(-c3cccc(Cl)c3)c12 (centres unmarked) [Compound 117, 3-((5-(3-chlorophenyl)-7H-pyrrolo[2,3-d]pyrimidin-4-yl)amino)-2-methylpropan-1-ol]	
> 5 µM	> 5 µM	N#Cc1ccc(Nc2nc(N3CCOCC3)c3c(-c4cccc(Cl)c4)c[nH]c3n2)cc1 [Compound 120, 4-((5-(3-chlorophenyl)-4-morpholino-7H-pyrrolo[2,3-d]pyrimidin-2-yl)amino)benzonitrile]	
1 to 5 µM	1 to 5 µM	COCC(C)CN(C)c1ncnc2[nH]cc(-c3cccc(Cl)c3)c12 (centres unmarked) [Compound 122, 5-(3-chlorophenyl)-N-(3-methoxy-2-methylpropyl)-N-methyl-7H-pyrrolo[2,3-d]pyrimidin-4-amine]	
< 1 µM	< 1 µM	COCC(C)CNc1ncnc2[nH]cc(-c3cccc(Cl)c3)c12 (centres unmarked) [Compound 123, 5-(3-chlorophenyl)-N-(3-methoxy-2-methylpropyl)-7H-pyrrolo[2,3-d]pyrimidin-4-amine]	

Structure (SMILES)	IC50 (STK4)	IC50 (STK3; [1])	IC50 (STK3)
Clc1cccc(-c2c[nH]c3ncnc(NCc4ccc(Cl)nc4)c23)c1 [Compound 86, 5-(3-chlorophenyl)-N-((6-chloropyridin-3-yl)methyl)-7H-pyrrolo[2,3-d]pyrimidin-4-amine]	> 5 µM	> 5 µM	
O=C1CCN(c2ncnc3[nH]cc(-c4cccc(Cl)c4)c23)CC1 [Compound 118, 1-(5-(3-chlorophenyl)-7H-pyrrolo[2,3-d]pyrimidin-4-yl)piperidin-4-one]	< 1 µM		1 to 5 µM
